Source: US20210379046A1, “Methods of Treating Diseases Using Kinase Modulators” (Memorial Sloan Kettering Cancer Center, priority 2018, published 2021)

Key:
TPC1 cells [1] = test: Flow cytometry of cell surface HLA and checkpoint ligands on TPC1 cells; assay type: cell-based, human; settings: TPC1, 100 nM, 72 hours
Protocol: (§1) If adherent cells, they were seeded one day before treatment.

TPC1 cells [2] = test: Mass spectrometry of eluted HLA class I presented peptides, TPC1 cells; assay type: cell-based, human
Protocol: After 72 hrs, cells were harvested, washed, lysed. The lysate was run through an activated Sepharose-CNBr column coupled to the W6/32 antibody to bind HLA-A,B,C from the cell. The peptides bound by those HLAs and captured on the column were then eluted and mass spectrometry was run on those peptides.
Immunopurification affinity columns were prepared as described previously (Bassani-Sternberg et al., 2015, Mol Cell Proteomics 14(3):658-673). In brief, 40 mg of Cyanogen bromide-activated-Sepharose® 4B (Sigma-Aldrich, Cat #C9142) was activated with 1 mM hydrochloric acid (Sigma-Aldrich, Cat #320331) for 30 min. Subsequently, 0.5 mg of W6/32 antibody (BioXCell, BE0079; RRID: AB 1107730) was coupled to sepharose in presence of binding buffer (150 mM sodium chloride, 50 mM sodium bicarbonate, pH 8.3; sodium chloride: Sigma-Aldrich, Cat #S9888, sodium bicarbonate: Sigma-Aldrich, Cat #56014) for at least 2 hours at room temperature. Sepharose was blocked for 1 h with glycine (Sigma-Aldrich, Cat #410225). Columns were equilibrated with PBS for 10 min. […]. Afterwards, cells were lysed in 1 ml 1% CHAPS (Sigma-Aldrich, Cat #C3023) in PBS, supplemented with 1 tablet of protease inhibitors (cOmplete, Cat #11836145001) for 1 hour at 4° C. This lysate was spun down for 1 hour at 20,000 g at 4° C. Supernatant was run over the affinity column through peristaltic pumps at 1 ml/min overnight at 4° C. Affinity columns were washed with PBS for 15 min, run dry, and HLA complexes subsequently eluted three times with 200 μl 1% trifluoracetic acid (TFA, Sigma/Aldrich, Cat #02031). For separation of HLA ligands from their HLA complexes tC18 columns (Sep-Pak tC18 1 cc VacCartridge, 100 mg Sorbent per Cartridge, 37-55 μm Particle Size, Waters, Cat #WAT036820) were prewashed with 80% acetonitrile (ACN, Sigma-Aldrich, Cat #34998) in 0.1% TFA and equilibrated with two washes of 0.1% TFA. Samples were loaded, washed again with 0.1% TFA and eluted in 400 μl 30% ACN in 0.1% TFA. Sample volume was reduced by vacuum centrifugation for mass spectrometry analysis.
Samples were analyzed by a high resolution/high accuracy LC-MS/MS (Lumos Fusion, Thermo Fisher). Peptides were desalted using ZipTips (Sigma Millipore, Cat. #ZTC18S008) according to manufactures instructions and concentrated using vacuum centrifugation prior to being separated using direct loading onto a packedin-emitter C18 column (75 um ID/12 cm, 3 μm particles, Nikkyo Technos Co., Ltd. Japan). The gradient was delivered at 300 nl/min increasing linear from 2% Buffer B (0.1% formic acid in 80% acetonitrile)/98% Buffer A (0.1% formic acid) to 30% Buffer B/70% Buffer A, over 70 minutes. MS and MS/MS were operated at resolutions of 60,000 and 30,000, respectively. Only charge states 1, 2 and 3 were allowed. 1.6 Th was chosen as the isolation window and the collision energy was set at 30%. For MS/MS, the maximum injection time was 100 ms with an AGC of 50,000.
Mass spectrometry data was processed using Byonic software (version 2.7.84, Protein Metrics, PaloAlto, Calif.) through a custom-built computer server equipped with 4 Intel Xeon E5-4620 8-core CPUs operating at 2.2 GHz, and 512 GB physical memory (Exxact Corporation, Freemont, Calif.). Mass accuracy for MS1 was set to 10 ppm and to 20 ppm for MS2, respectively. Digestion specificity was defined as unspecific and only precursors with charges 1, 2, and 3 and up to 2 kDa were allowed. Protein FDR was disabled to allow complete assessment of potential peptide identifications. Oxidization of methionine, N-terminal acetylation, phosphorylation of serine, threonine and tyrosine were set as variable modifications for all samples. All samples were searched against the UniProt Human Reviewed Database (20,349 entries, uniprot.org, downloaded June 2017). […]

TPC1 cells [3] = test: RNA-seq of TPC1 cells after RET inhibitor treatment; assay type: cell-based, human; settings: TPC1, 72 hours
Protocol: Purified polyA mRNA was subsequently fragmented, and first and second strand cDNA synthesis performed using standard Illumina mRNA TruSeq library preparation protocols. Double stranded cDNA was subsequently processed for TruSeq dual-index Illumina library generation. For sequencing, pooled multiplexed libraries were run on a HiSeq 2500 machine on RAPID mode. Approximately 10 million 76 bp single-end reads were retrieved per replicate condition. Resulting RNA-Seq data was analyzed by removing adaptor sequences using Trimmomatic, aligning sequencing data to GRCh37.75(hg19) with STAR, and genome wide transcript counting using HTSeq to generate a RPKM matrix of transcript counts. This RPKM matrix was further log (log 2) transformed and normalized per gene to obtain the Z-score. Differential gene expression was analyzed by looking at fold changes between experimental conditions.

Karpas299 cells = test: Luminex cytokine secretion, Karpas299 cells; assay type: cell-based, human; settings: Karpas299, 100 nm alectinib
Protocol: Supernatant media were harvested after treatment and analyzed by the Luminex device (Luminex Corporation, Austin, Tex.) for relevant cytokine secretion. […] On the left side of each panel is data after 24 hours. On the right side of each panel is data after 48 hours. […] The data points shown in this figure are in pairs for each condition. The data point pairs for each time point are, from left to right: DMSO, Rux, Alec, IFNg, and IFNg+Rux.

pERK in SUDHL-1 cells = test: Western blot of pERK in SUDHL-1 cells; assay type: cell-based, human; settings: SUDHL-1, 3 hrs
Protocol: (§2) Cells were seeded in a 60 mm dish or 6 well plates. After the appropriate time point, cells were harvested and lysed and protein was quantified by a Lowry assay (Bio-Rad DC Protein Assay; #5000116). Protein levels were normalized and run on SDS PAGE gels (Bio-Rad). Protein was transferred to a nitrocellulose membrane using semi-dry transfer. Membrane was blocked and incubated with respective antibodies. When needed, secondary antibodies with HRP were incubated for 1 hr.
(§3) Cells were seeded in a 60 mm dish or 6 well plates. After the appropriate time point, cells were harvested, lysed in RIPA buffer (Thermo Instruments) and protein concentration was quantified by a Lowry assay (using the Bio-Rad DC Protein Assay; #5000116 on a Spectramax device from Molecular Devices). Protein loading levels were equalized per lane and separated on SDS gels (Bio-Rad). Protein was transferred to a nitrocellulose membrance using semi-dry transfer (BioRad). Membranes were blocked with Omniblock (American Bio) and incubated with respected antibodies. When needed, secondary antibodies with HRP were incubated for 1 hr.

Karpas 299 tumors = test: Karpas 299 subcutaneous tumors in mice, tumor HLA and PD-L1 by flow cytometry; assay type: in vivo
Protocol: Female NSG (NOD.Cg-Prkdc^scidIl2rg^tm1Wj1/SzJ) and NRG (NOD.Cg-Rag1^tm1MomIl2rg^tm1Wj1/SzJ) mice were purchased from the Jackson Laboratory or MSKCC breeding facility at 5-10 weeks old. For RET and ALK experiments, 2.5-6×10^6 tumor cells were subcutaneously injected into the flank of mice and when tumors were palpable, mice were treated daily with drug or vehicles through oral gavage. At day 7, tumors were harvested and flow cytometry was run to determine effect of inhibitors on HLA and PD-L1 on the tumor cells.
The highly immunodeficient NRG (NOD-Rag1null IL2rgnull) mice were subcutaneously injected with 2.5×10^6 luciferase tagged TPC1 cells in their right flank. […] Afterwards, cells were immediately harvested and stained with antibodies against HLA-A*02:01 and HLA-ABC.
All animal experiments were conducted in accordance with and the approval of the MSKCC IACUC (Institutional Animal Care and Use Committee) protocols. Female NSG (NOD. Cg-Prkdc^scidIl2rg^tm1Wj1/SzJ) and NRG (NOD.Cg-Rag1^tm1MomIl2rg^tm1Wj1/SzJ) mice were purchased from the Jackson Laboratory at 5-10 weeks old. For experiments in vivo with RET and ALK, 2.5-6×10^6 tumor cells in PBS were subcutaneously injected into the flank of mice. When tumors were palpable (2-3 mm), mice were treated daily with drugs or vehicles through oral gavage of drugs in 200 ul of water. At day 4 or 7, tumors were harvested and flow cytometry was conducted to determine the effect of inhibitors on HLA and PD-L1 on the tumor cells. […] TPC1 cells were transduced with luciferase and GFP on an SFG vector and this allowed gating of the tumor cells in flow cytometry.

SUP-M2 cells = test: PD-L1 levels in vitro on SUP-M2 cells
Protocol: 5×10^4 cells were seeded in a 12 well plate and treated with drug for 72 hrs. Adherent cells were seeded one day before treatment. At 72 hrs, cells were harvested, washed with PBS and incubated on ice with appropriate fluorophore conjugated antibodies diluted in FACS buffer for 1 hr. Gating strategy: Cells were then washed and incubated 30 min with a viability dye (propidium iodide at 1 ug/mL) and live cells only were analyzed by on a Guava flow cytometer with FlowJo software.

SUDHL-1 cells = test: Flow cytometry of cell surface HLA on SUDHL-1 cells; assay type: cell-based, human; settings: SUDHL-1, 72 hrs, increasing concentrations
Protocol: as §1

Karpas 299 cells = test: Flow cytometry of cell surface HLA and checkpoint ligands on Karpas 299 cells; assay type: cell-based, human
Protocol: as §1

pERK in Karpas 299 cells = test: Western blot of pERK in Karpas 299 cells; assay type: cell-based, human; settings: Karpas 299, 3 hrs
Protocol: as §2, §3

[4] = TPC1, 10 nM AST487 or 100 nM cabozantinib
[5] = Karpas 299 tumors, daily oral gavage

COc1cc2nccc(Oc3ccc(NC(=O)C4(C(=O)Nc5ccc(F)cc5)CC4)cc3)c2cc1OC [cabozantinib]
increase in surface HLA (pan-HLA) (TPC1 cells [1]): ~4 fold
increase in surface HLA-A*02 (TPC1 cells [1]): 4 fold
runs TEIPP peptide was found in (n = 3) (TPC1 cells [2]; ALFSFVTAL (SEQ ID NO: 11)): 0
runs TEIPP peptide was found in (n = 3) (TPC1 cells [2]; FLGPWPAAS (SEQ ID NO: 12)): 1
runs TEIPP peptide was found in (n = 3) (TPC1 cells [2]; FLSELQYYL (SEQ ID NO: 13)): 0
runs TEIPP peptide was found in (n = 3) (TPC1 cells [2]; FLYPFLSHL (SEQ ID NO: 14)): 0
runs TEIPP peptide was found in (n = 3) (TPC1 cells [2]; ILEYLTAEV (SEQ ID NO: 15)): 0
runs TEIPP peptide was found in (n = 3) (TPC1 cells [2]; LLALAAGLAV (SEQ ID NO: 16)): 0
runs TEIPP peptide was found in (n = 3) (TPC1 cells [2]; LLLDVPTAAV (SEQ ID NO: 17)): 1
runs TEIPP peptide was found in (n = 3) (TPC1 cells [2]; LLLSAEPVPA (SEQ ID NO: 18)): 0
runs TEIPP peptide was found in (n = 3) (TPC1 cells [2]; LLWGRQLFA (SEQ ID NO: 19)): 0
runs TEIPP peptide was found in (n = 3) (TPC1 cells [2]; LSEKLERI (SEQ ID NO: 20)): 0
runs TEIPP peptide was found in (n = 3) (TPC1 cells [2]; LTLLGTLWGA (SEQ ID NO: 21)): 0
runs TEIPP peptide was found in (n = 3) (TPC1 cells [2]; SVLWLGALGL (SEQ ID NO: 22)): 0
runs TEIPP peptide was found in (n = 3) (TPC1 cells [2]; TLLGASLPA (SEQ ID NO: 23)): 0
new peptides (only peptides found in all three runs counted) (TPC1 cells [2]; [4]): 492
unique peptides not present in the DMSO group (found in at least one run) (TPC1 cells [2]; [4]): 1642
unique ligands presented (TPC1 cells [2]; TPC1, 10 nM AST487 or 100 nM cabozantinib, three runs pooled, DMSO 4211): 4850
increase in unique peptides vs DMSO (TPC1 cells [2]; TPC1, three runs pooled): 15%
unique HLA ligands detected in all 3 runs (TPC1 cells [2]; TPC1, DMSO 195): 639
runs TEIPP peptide was found in (n = 3) (TPC1 cells [2]; VIIKPLVWV (SEQ ID NO: 24)): 0
runs TEIPP peptide was found in (n = 3) (TPC1 cells [2]; VLAVFIKAV (SEQ ID NO: 25)): 0
runs TEIPP peptide was found in (n = 3) (TPC1 cells [2]; VLLDHLSLA (SEQ ID NO: 26)): 0
genes upregulated at least two-fold (TPC1 cells [3]): 50

CCc1cc2c(cc1N1CCC(N3CCOCC3)CC1)C(C)(C)c1[nH]c3cc(C#N)ccc3c1C2=O [alectinib]
IFNα, IFNγ, IL4 secretion (Karpas299 cells): had no effect on IFNα, IFNγ, IL4
IL6 and TNFα secretion (Karpas299 cells): reduced IL6 and TNFα secretion
pERK levels (pERK in SUDHL-1 cells): shut down pERK expression
drop of PD-L1 (Karpas 299 tumors; Karpas 299 tumors in NSG mice): approximately 75%
tumor PD-L1 levels in vivo (Karpas 299 tumors; [5]): PD-L1 decreased with increasing doses
tumor cell surface HLA-A,B,C in vivo (Karpas 299 tumors; [5]): increased modestly in a dose-dependent manner
PD-L1 levels in vitro (SUP-M2 cells): dramatic decreases in PD-L1 were seen in vitro
cell surface HLA-A,B,C (SUDHL-1 cells): upregulates cell surface HLA
PD-L1 levels in vitro (Karpas 299 cells; Karpas 299): dramatic decreases in PD-L1 were seen in vitro
surface HLA-E levels (Karpas 299 cells; Karpas 299): did not change
cell surface HLA-A,B,C (Karpas 299 cells; Karpas 299, 72 hrs, increasing concentrations): upregulates cell surface HLA
HLA-A02 (BB7-FITC) surface level (Karpas 299 cells; Karpas299, alectinib 100 nM, 72 hours): led to upregulation of HLA
pERK levels (pERK in Karpas 299 cells): shut down pERK expression
